Data on three molecules can be found in patent publication US5191079A, “Quinolinecarboxylic acid derivatives” (priority 1990, dated 1993).

The term MIC denotes the lowest concentration found to suppress growth.

Experiment in all cases: MIC, Experiment 1
Common to all, as to format: cell-based

In assay [1] the test system is Klebsiella pneumoniae PCI-602. To be noted: PCI602, K. pneumoniae PCI-602, Gram -, read-out: Min. inhib. concentr. (MIC). The method, then: (§1) The compounds of the present invention (B, E, G, H, M, N, O, P and Q) were each dissolved in dimethylsulfoxide to prepare a solution of 5000 μg/ml in concentration. The compounds of the present invention (I, J and K) and the known compound (Y) were each dissolved in sterilized distilled water to prepare a solution of 5000 μg/ml in concentration. Each solution was diluted with sterilized distilled water to prepare a standard solution with a concentration of each test compound: 1000 μg/ml. The test was carried out by a method as appointed by Japan Society of Chemotherapy [cf. Chemotherapy, 29, 76-79 (1981), TOKYO].
(§2) As to Streptococcus pneumoniae and Streptococcus pyogenes, Brain heart infusion broth (manufactured by DIFCO) was used as the medium for the preculture thereof, and a heart infusion agar medium containing 5% defibrinated horse blood (manufactured by Nissui Seiyaku K. K., Japan) was used as the medium for the measurement of minimum inhibitory concentration (MIC). As to other microorganisms, a sensitivity test broth (manufactured by Nissui Seiyaku K. K.) was used as the medium for the preculture thereof, and a sensitivity test agar medium (manufactured by Nissui Seiyaku K. K.) was used as the medium for the measurement of MIC.

The test system of another assay is Enterobacter cloacae 963. To be noted: E. cloacae 963, Gram -, read-out: Min. inhib. concentr. (MIC). As for the experimental part:
as §1, §2

Assay [2] has as its system Staphylococcus aureus ATCC 9144. The settings on record: ATCC9144, S. aureus ATCC 9144, Gram +, read-out: Min. inhib. concentr. (MIC). The method, then:
as §1, §2

Assay [3] has as its system Streptococcus pyogenes Sv. To be noted: S. pyogenes Sv, Gram +, agar with 5% defibrinated horse blood, read-out: Min. inhib. concentr. (MIC). As for the experimental part:
as §1, §2

For assay [4], the system named is Staphylococcus aureus Terajima (IID 670). To be noted: IID670, S. aureus Terajima (IID 670), Gram +, read-out: Min. inhib. concentr. (MIC). The method, then:
as §1, §2

For assay [5], the system named is Micrococcus luteus ATCC 9341. To be noted: ATCC9341, M. luteus ATCC 9341, Gram +, read-out: Min. inhib. concentr. (MIC). As for the experimental part: as §1, §2
Assay [6] concerns Streptococcus pneumoniae IID 554. The settings on record: IID554, S. pneumoniae IID 554, Gram +, agar with 5% defibrinated horse blood, read-out: Min. inhib. concentr. (MIC). The method, then: as §1, §2
Assay [7] deals with Staphylococcus aureus IID 803. The settings on record: IID803, S. aureus IID 803, Gram +, read-out: Min. inhib. concentr. (MIC). As for the experimental part: as §1, §2
The subject of assay [8] is Pseudomonas aeruginosa NCTC 10490. The settings on record: NCTC10490, P. aeruginosa NCTC 10490, Gram -, read-out: Min. inhib. concentr. (MIC). As for the experimental part: as §1, §2
For assay [9], the system named is Streptococcus pyogenes Cook. The settings on record: S. pyogenes Cook, Gram +, agar with 5% defibrinated horse blood, read-out: Min. inhib. concentr. (MIC). The method, then: as §1, §2
The test system of assay [10] is Streptococcus pyogenes Su. The settings on record: S. pyogenes Su, Gram +, agar with 5% defibrinated horse blood, read-out: Min. inhib. concentr. (MIC). The method, then: as §1, §2
Assay [11] has as its system Staphylococcus aureus FDA 209P JC-1. The settings on record: FDA209P, S. aureus FDA 209P JC-1, Gram +, read-out: Min. inhib. concentr. (MIC). As for the experimental part: as §1, §2
Assay [12] concerns Staphylococcus aureus MS-353. To be noted: MS353, S. aureus MS-353, Gram +, read-out: Min. inhib. concentr. (MIC). The method, then: as §1, §2
The test system of assay [13] is Proteus mirabilis IFO 3849. To be noted: IFO3849, P. mirabilis IFO 3849, Gram -, read-out: Min. inhib. concentr. (MIC). The method, then: as §1, §2
In assay [14] the test system is Bacillus subtilis ATCC 6633. The settings on record: ATCC6633, B. subtilis ATCC 6633, Gram +, read-out: Min. inhib. concentr. (MIC). As for the experimental part:
as §1, §2

Assay [15] relates to Staphylococcus aureus Cowan I (IID 975). The settings on record: IID975, S. aureus Cowan I (IID 975), Gram +, read-out: Min. inhib. concentr. (MIC). As for the experimental part: as §1, §2
Assay [16] has as its system Escherichia coli NIHJ JC-2. To be noted: NIHJJC2, E. coli NIHJ JC-2, Gram -, read-out: Min. inhib. concentr. (MIC). As for the experimental part:
as §1, §2

For assay [17], the system named is Staphylococcus aureus FDA 243. The settings on record: FDA243, S. aureus FDA 243, Gram +, read-out: Min. inhib. concentr. (MIC). The method, then: as §1, §2
For assay [18], the system named is Streptococcus pneumoniae IID 552. The settings on record: IID552, S. pneumoniae IID 552, Gram +, agar with 5% defibrinated horse blood, read-out: Min. inhib. concentr. (MIC). As for the experimental part:
as §1, §2

Assay [19] deals with Acinetobacter calcoaceticus Ac 54. The settings on record: AC54, A. calcoaceticus Ac 54, Gram -, read-out: Min. inhib. concentr. (MIC). As for the experimental part:
as §1, §2

In the next assay the test system is Bacillus cereus IAM 1029. To be noted: IAM1029, B. cereus IAM 1029, Gram +, read-out: Min. inhib. concentr. (MIC). As for the experimental part: as §1, §2

Structures are written as SMILES. Values after ≈ are worked out from the molar mass of the structure shown. Where a name gives a salt, the structure may show the parent alone. A value given as a limit tells only on which side of the number the result lay.

Take `CN1Cc2csc3c(C(=O)O)c(=O)c4cc(F)c(N5CCC(O)CC5)c1c4n23` [Compound (L), 9,1-(Methylimino)methano-7-fluoro-8-(4-hydroxypiperidino)-5-oxo-5H-thiazolo[3,2-a]quinoline-4-carboxylic acid]: the MIC in assay [1] is not above 0.006 µg/mL; in the assay on Enterobacter cloacae 963, 0.2 µg/mL (≈ 0.496 µM); in [2], not above 0.006 µg/mL; in [3], 0.025 µg/mL (≈ 0.062 µM); in assay [4] it was 0.013 µg/mL (≈ 0.0322 µM); in [5], 0.1 µg/mL (≈ 0.248 µM). For the same molecule, the MIC was 0.05 µg/mL (≈ 0.124 µM) in [6]; not above 0.006 µg/mL in assay [7]; 0.39 µg/mL (≈ 0.967 µM) in assay [8]; 0.025 µg/mL (≈ 0.062 µM) in assay [9]; 0.025 µg/mL (≈ 0.062 µM) in assay [10]; 0.013 µg/mL (≈ 0.0322 µM) in assay [11]. Also, the MIC is 0.013 µg/mL (≈ 0.0322 µM) in assay [12]; 0.2 µg/mL (≈ 0.496 µM) in assay [13]; not above 0.006 µg/mL in [14]; not above 0.006 µg/mL in assay [15]; 0.1 µg/mL (≈ 0.248 µM) in assay [16]; not above 0.006 µg/mL in assay [17]. Moreover, the MIC in assay [18] was 0.013 µg/mL (≈ 0.0322 µM); in [19], not above 0.006 µg/mL; in the assay with Bacillus cereus IAM 1029 it was 0.013 µg/mL (≈ 0.0322 µM).
As for `CN1Cc2csc3c(C(=O)O)c(=O)c4cc(F)c(N5CCN(C)C(CO)C5)c1c4n23` (stereo not drawn) [Compound (I), 9,1-(Methylimino)methano-7-fluoro-8-(3-hydroxymethyl-4-methyl-1-piperazinyl)-5-oxo-5H-thiazolo-[3,2-a]quinoline-4-carboxylic acid hydrochloride], the minimum inhibitory concentration (MIC) in assay [1] is 0.025 µg/mL; with Enterobacter cloacae 963, 0.2 µg/mL; in [2] it was 0.1 µg/mL; in assay [3] it was 0.1 µg/mL; in [4], 0.2 µg/mL; in assay [5], 0.39 µg/mL. Also, the MIC in assay [6] worked out at 0.05 µg/mL; in assay [7] it was 0.2 µg/mL; in assay [8], 0.78 µg/mL; in [9], 0.05 µg/mL; in [10], 0.05 µg/mL; in assay [11], 0.2 µg/mL. Further, the MIC turned out to be 0.39 µg/mL in assay [12]; 0.78 µg/mL in assay [13]; 0.1 µg/mL in [14]; 0.2 µg/mL in assay [15]; 0.2 µg/mL in assay [16]; 0.1 µg/mL in [17]. Besides, the MIC in assay [18] was 0.1 µg/mL; in assay [19], 0.1 µg/mL; in the assay with Bacillus cereus IAM 1029, 0.2 µg/mL.
As to `CN1Cc2csc3c(C(=O)O)c(=O)c4cc(F)c(N5CCOC(CCl)C5)c1c4n23` (stereo not drawn) [Compound (D), 9,1-(Methylimino)methano-7-fluoro-8-(2-chloromethylmorpholino)-5-oxo-5H-thiazolo[3,2-a]quinoline-4-carboxylic acid], the MIC in assay [1] came out at 0.025 µg/mL (≈ 0.0571 µM); in the assay with Enterobacter cloacae 963, 0.39 µg/mL (≈ 0.891 µM); in assay [2] it was 0.013 µg/mL (≈ 0.0297 µM); in assay [3] it was 0.05 µg/mL (≈ 0.114 µM); in [4], 0.025 µg/mL (≈ 0.0571 µM); in [5] it was 0.05 µg/mL (≈ 0.114 µM). For the same molecule, the MIC in assay [6] was 0.05 µg/mL (≈ 0.114 µM); in assay [7], not above 0.006 µg/mL; in [8], 0.39 µg/mL (≈ 0.891 µM); in assay [9] it was 0.05 µg/mL (≈ 0.114 µM); in assay [10], 0.025 µg/mL (≈ 0.0571 µM); in assay [11] it was 0.013 µg/mL (≈ 0.0297 µM). Further, the MIC in assay [12] was 0.013 µg/mL (≈ 0.0297 µM); in assay [13], 0.39 µg/mL (≈ 0.891 µM); in [14], not above 0.006 µg/mL; in assay [15] it was 0.013 µg/mL (≈ 0.0297 µM); in assay [16], 0.2 µg/mL (≈ 0.457 µM); in assay [17], not above 0.006 µg/mL. Also, the MIC was 0.05 µg/mL (≈ 0.114 µM) in assay [18], not above 0.006 µg/mL in assay [19] and 0.025 µg/mL (≈ 0.0571 µM) in the assay with Bacillus cereus IAM 1029.
